In patent US20130067616A1, “Plant Defensive Peptides” (priority 2010, published 2013):
Ends that are not written are not given here.

Experiments:
fungal cultures = details: literature values (Thevissen et al. 1996; Oard et al. 2004); read-out: IC50, concentration of a peptide that inhibits 50% growth of fungal cultures relative to control; cited from earlier work
Rhizoctonia solani = test: Inhibitory concentrations of antimicrobial peptides and antibiotics against Rhizoctonia solani in vitro; format: cell-based; design: MIC, minimum concentration that completely inhibits growth of fungal cells: unit: μM; details: for IC50: ± std, read-out: IC50, concentration that inhibits 50% growth of fungal cultures vs control
[1] = tested on: Neurospora crassa and Saccharomyces cerevisiae; design: dose or concentration left out as unconfirmed; details: concentration as low as; cited from earlier work
[2] = tested on: phytopathogenic bacteria and fungi; test: Antibacterial and antifungal resistance of Arabidopsis expressing antimicrobial peptides; format: in vivo; details: carbonic anhydrase promoter, rice endochitinase signal peptide
Excerpt: Including the acidic peptide is thus a preferred aspect of practicing the invention, although it may not be required. Tagging the βPTH precursor with EGFP greatly impaired antimicrobial activity in the mature peptide, even though EGFP was fused to the C-terminus of the acidic protein, the portion that was post-translationally cleaved.

Compound	IC50 (fungal cultures)	MIC, minimum concentration that completely inhibits growth of fungal cells (Rhizoctonia solani)	IC50 (Rhizoctonia solani)	Inhibition of fungal growth [1]	Antimicrobial resistance in vivo of Arabidopsis expressing the peptide [2]
α-Hordothionin (KSCCRSTLGRNCYNLCRVRGAQKLCAGVCRCKLTSSGKCPTGFPK) [barley seed-specific thionin, GenBank X05901]	1 µM				
C[C@@H]([C@H](N)C(=O)N[C@H](C(=O)O)[C@H]1O[C@@H](n2ccc(=O)[nH]c2=O)[C@H](O)[C@@H]1O)[C@H](O)c1ccc(O)cn1 [Nikkomycin Z]		4.5 µmol	0.86 ± 0.1 µM		
α-purothionin				up to 50%	
β-Purothionin [βPTH]	1.1 µM	5.02 µmol	1.14 ± 0.4 µM		the greatest antibacterial and antifungal resistance
C[C@@H]1[C@H](O)[C@@H](C)/C=C/C=C/CC/C=C/C=C/C=C/C=C/C(O[C@H]2O[C@H](C)[C@@H](O)[C@H](N)[C@@H]2O)CC2O[C@](O)(CC(O)C(O)CCC(O)CC(O)CC(O)CC(=O)O[C@H]1C)CC(O)C2C(=O)O (some centres unmarked) [Nystatin]		5.2 µmol	1.1 ± 0.3 µM		
Cecropin B (KWKVFKKIEKMGRNIRNGIVKAGPAIAVLGEAKAL; ends and bridges not checked; UniProt P01508 27-61, looked up) [natural 35-residue peptide from the Cecropia moth]		9.8 µmol	4.6 ± 0.3 µM		only antibacterial activity, not antifungal activity
CC[C@H](C)[C@H](NC(=O)CN)C(=O)NCC(=O)N[C@@H](C)C(=O)N[C@H](C(=O)N[C@@H](CC(C)C)C(=O)N[C@@H](CCCCN)C(=O)N[C@H](C(=O)N[C@@H](CC(C)C)C(=O)N[C@H](C(=O)N[C@H](C(=O)NCC(=O)N[C@@H](CC(C)C)C(=O)N1CCC[C@H]1C(=O)N[C@@H](C)C(=O)N[C@@H](CC(C)C)C(=O)N[C@H](C(=O)N[C@@H](CO)C(=O)N[C@@H](Cc1c[nH]c2ccccc12)C(=O)N[C@H](C(=O)N[C@@H](CCCCN)C(=O)N[C@@H](CCCNC(=N)N)C(=O)N[C@@H](CCCCN)C(=O)N[C@@H](CCCNC(=N)N)C(=O)N[C@@H](CCC(N)=O)C(=O)N[C@@H](CCC(N)=O)C(N)=O)[C@@H](C)CC)[C@@H](C)CC)[C@@H](C)O)[C@@H](C)O)C(C)C)C(C)C [Melittin]		13.1 µmol	7.1 ± 0.6 µM		
Magainin II		30.2 µmol	15.7 ± 0.9 µM		
